Measurements: patent publication US11324774B2, “Compositions of oral alkaline salts and metabolic acid inducers and uses thereof” (Augusta University Research Institute, Inc., priority 2018, dated 2022)

Test system: blood leukocytes (M1, M2 macrophages, TNFα+ neutrophils)
Conditions: single 2 g dose
Experimental: Blood was taken at all time points for all control subjects. No data was excluded from the analysis. Flow cytometric analysis of heparinized whole blood was performed as described previously. Briefly, cells were incubated with antibodies for surface markers (15 minutes on ice in dark) before incubation with antibodies against intracellular cytokines and factors (after permeabilization for 15 minutes using fix/Perm cocktail, eBioscience, San Diego USA) including, CD11b, CD68, TNFα (for M1 macrophages), CD11b, CD68, CD206 and IL-10 (for M2 macrophages) (purchased from BD BioSciences) and CD16 and TNFα (for neutrophils, from eBioscience, USA). Cells were then washed and run through a four-color flow cytometer (FACS Calibur, BD Biosciences), and data were collected using CellQuest software. Samples were double-stained with control IgG and cell markers to assess any spillover signal of fluorochromes. Proper compensation was set to ensure the median fluorescence intensities of negative and positive cells were identical and then was used to gate the population. Gating excluded dead cells and debris using forward and side scatter plots.

Compound: O=C([O-])O.[Na+] [NaHCO3, sodium bicarbonate]
- M1 macrophages in blood (1-3 hours, compared to NaCl, p=0.0004): reduced to a significantly greater degree
- TNFα positive neutrophils in blood (1-3 hours, compared to NaCl, p=0.0146): reduced to a significantly greater degree
- percentage of blood leukocytes identified as M2 macrophages (change from baseline compared to NaCl, p=0.00165): increased
